Laboratory results reported in ChEMBL document CHEMBL1201862, “PubChem BioAssay data set” (2004).
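Tested at 5 concentrations; 48 h exposure; 96-well plates; endpoints linearly interpolated, else capped at highest concentration. GI50 is the concentration that inhibits growth by half.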 Active and inactive are the calls of the source. No stated cut-off is given here; in the data, active = GI50 up to about 1.1 µM and inactive = higher.

Columns and labels:
Assay in all cases: NCI-60 cell line screen, 48 h
SF-295 = test system: SF-295
SNB-19 = test system: SNB-19
K562 = test system: K562
IGROV-1 = test system: IGROV-1
SK-MEL-2 = test system: SK-MEL-2
SK-OV-3 = test system: SK-OV-3
SR = test system: SR
A498 = test system: A498
NCI-H226 = test system: NCI-H226
NCI-H23 = test system: NCI-H23
HT-29 = test system: HT-29
786-0 = test system: 786-0
HCT-116 = test system: HCT-116
SN12C = test system: SN12C
OVCAR-5 = test system: OVCAR-5
SK-MEL-5 = test system: SK-MEL-5
KM12 = test system: KM12
TK-10 = test system: TK-10

Measured: GI50

O=C(N/C(=C\c1cccc([N+](=O)[O-])c1)c1nc2c(O)nc(S)nc2[nH]1)c1ccccc1
inactive: SF-295 > 100 µM | SNB-19 > 100 µM | K562 > 100 µM | IGROV-1 > 100 µM | SK-MEL-2 > 100 µM | SK-OV-3 > 100 µM | SR > 100 µM | A498 > 100 µM | NCI-H226 > 100 µM | NCI-H23 > 100 µM | HT-29 > 100 µM | 786-0 > 100 µM | HCT-116 > 100 µM | SN12C > 100 µM | OVCAR-5 > 100 µM | SK-MEL-5 > 100 µM | KM12 > 100 µM

C=CCC1(CN(C)C)CC/C(=C\c2ccc3c(c2)OCO3)C1=O (stereo not given)
inactive: SF-295 > 100 µM | SNB-19 > 100 µM | K562 32.7 µM | IGROV-1 60.5 µM | TK-10 > 100 µM | SK-MEL-2 > 100 µM | SR 41 µM | A498 33.7 µM | NCI-H226 > 100 µM | NCI-H23 65.8 µM | HT-29 36 µM | 786-0 44.8 µM | HCT-116 43.6 µM | SN12C > 100 µM | OVCAR-5 > 100 µM | SK-MEL-5 22.7 µM | KM12 42.3 µM

COc1cc2c[n+](C)c3c4cc(OC)c(OC(C)C)cc4ccc3c2cc1OC
inactive: SF-295 > 100 µM | SNB-19 51.8 µM | K562 32.3 µM | IGROV-1 45.1 µM | TK-10 > 100 µM | SK-MEL-2 20.1 µM | SK-OV-3 > 100 µM | SR 43.2 µM | NCI-H226 98.4 µM | NCI-H23 48.6 µM | HT-29 49.3 µM | 786-0 > 100 µM | HCT-116 > 100 µM | SN12C 37.8 µM | OVCAR-5 69.7 µM | SK-MEL-5 23.4 µM | KM12 29.8 µM

COC1[C@@H](OC(C)=O)[C@@H](NC(=O)C(Cl)(Cl)Cl)C(I)[C@@H](N2C(=O)c3ccccc3C2=O)[C@H]1OC (stereo not given in full)
inactive: SF-295 36.6 µM | SNB-19 > 100 µM | K562 > 100 µM | IGROV-1 > 100 µM | SR > 100 µM | A498 48.6 µM | NCI-H226 > 100 µM | NCI-H23 > 100 µM | HT-29 > 100 µM | 786-0 > 100 µM | HCT-116 > 100 µM | SN12C > 100 µM | OVCAR-5 > 100 µM | SK-MEL-5 > 100 µM | KM12 6.59 µM

CN(c1n[n+]2c(-c3ccccc3)csc2s1)c1n[n+]2c(-c3ccccc3)csc2s1
inactive: SF-295 > 100 µM | SNB-19 > 100 µM | K562 42.8 µM | IGROV-1 > 100 µM | TK-10 > 100 µM | SK-MEL-2 > 100 µM | SK-OV-3 > 100 µM | SR 61.5 µM | NCI-H226 > 100 µM | NCI-H23 > 100 µM | HT-29 > 100 µM | 786-0 > 100 µM | HCT-116 > 100 µM | SN12C > 100 µM | OVCAR-5 > 100 µM | SK-MEL-5 89.5 µM | KM12 > 100 µM

COc1ccc(/C=C2\CCC(CCN(C)C)(C3=CCCC3)C2=O)cc1 (stereo not given)
inactive: SF-295 18.7 µM | SNB-19 16.6 µM | K562 15.7 µM | IGROV-1 16.7 µM | TK-10 16.7 µM | SK-MEL-2 17.6 µM | SR 27.2 µM | A498 17.7 µM | NCI-H226 20.6 µM | NCI-H23 29 µM | HT-29 15.5 µM | 786-0 15.3 µM | HCT-116 15.1 µM | SN12C 19.9 µM | OVCAR-5 21.5 µM | SK-MEL-5 16.5 µM | KM12 18 µM
